Our source for the IC50 values is US20260042753A1 (Merck Patent GmbH, priority 2019, published 2026).

The target of assay [1] is mutant cKIT (560-576 and V654A) in GIST430/654 cell line (Homo sapiens (Human), UniProt P10721, DEL560-576/V654A). Kind of assay: Cellular testing of cKIT mutant inhibitors: phospho-Y307-cKIT Luminex assay in GIST430/654 cells. Format: cell-based. Particulars: Table 1; cKIT autophosphorylation, compounds 45 min; read-out: GIST 430/654 IC50. In outline:
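Autophosphorylation of mutant cKIT at Y307 was quantified by a Luminex bead sandwich assay (total-cKIT capture, phosphospecific detection) after 45 min compound exposure in GIST430/654 cells, cultured in medium containing 100 nM imatinib. Signals were normalised to solvent (0.3% DMSO) controls and dose-response curves fitted for IC50.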

The target in assay [2] is c-Kit(V654A) (Homo sapiens, UniProt P10721, V654A). Kind of assay: c-Kit(V654A) assay. Type of assay: biochemical. Particulars: Table 1; 200 μM ATP. A digest of the protocol: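 Radiometric filter-binding read-out: after 3% phosphoric acid stop, peptide-incorporated 33P on filtermat scintillation-counted. Enzyme: human c-Kit V654A, residues 544–end, N-terminal GST fusion.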

Sequence of mutant cKIT (560-576 and V654A) in GIST430/654 cell line (P10721 other isoform, or with tags, fused parts or gaps V654A/del 1-25/del 560-576 limits assumed): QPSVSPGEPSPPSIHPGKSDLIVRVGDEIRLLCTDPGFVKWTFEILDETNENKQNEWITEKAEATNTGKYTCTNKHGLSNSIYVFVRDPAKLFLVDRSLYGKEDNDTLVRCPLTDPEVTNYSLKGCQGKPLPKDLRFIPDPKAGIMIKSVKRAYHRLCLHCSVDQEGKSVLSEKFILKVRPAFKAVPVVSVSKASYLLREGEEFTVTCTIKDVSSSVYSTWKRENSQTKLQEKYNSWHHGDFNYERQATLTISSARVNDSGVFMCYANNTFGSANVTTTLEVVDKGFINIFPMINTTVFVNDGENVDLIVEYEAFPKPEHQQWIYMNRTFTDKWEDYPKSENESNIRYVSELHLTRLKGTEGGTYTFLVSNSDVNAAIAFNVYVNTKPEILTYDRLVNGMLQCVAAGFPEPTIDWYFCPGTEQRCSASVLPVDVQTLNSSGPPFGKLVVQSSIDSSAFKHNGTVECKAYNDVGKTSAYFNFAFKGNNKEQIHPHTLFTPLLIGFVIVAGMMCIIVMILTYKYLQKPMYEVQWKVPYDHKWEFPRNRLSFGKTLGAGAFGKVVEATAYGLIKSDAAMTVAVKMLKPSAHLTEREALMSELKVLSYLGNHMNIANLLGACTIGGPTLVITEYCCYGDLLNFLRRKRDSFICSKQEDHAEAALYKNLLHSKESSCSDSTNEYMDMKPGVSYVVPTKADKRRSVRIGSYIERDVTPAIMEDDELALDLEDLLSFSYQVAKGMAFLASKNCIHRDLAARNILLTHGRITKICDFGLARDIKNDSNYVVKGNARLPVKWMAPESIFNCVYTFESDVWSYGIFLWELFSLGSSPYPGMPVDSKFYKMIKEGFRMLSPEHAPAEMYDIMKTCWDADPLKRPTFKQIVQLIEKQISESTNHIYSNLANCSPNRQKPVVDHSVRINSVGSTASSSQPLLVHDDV

Turning to `COCCOc1cc2[nH]nc(-c3cc(-c4ccc(N5CCOCC5=O)cc4)no3)c2cc1F` [A139, 4-(4-{5-[5-fluoro-6-(2-methoxyethoxy)-1H-indazol-3-yl]-1,2-oxazol-3-yl}phenyl)morpholin-3-one], the IC50 in assay [1] was determined as 68 nM; in assay [2], 1.2 nM.

In the case of `COCCOc1cc2[nH]nc(-c3cc(-c4ccc(N5CC[S+]([O-])CC5)nc4)no3)c2cc1F` [A140, 4-(5-{5-[5-fluoro-6-(2-methoxyethoxy)-1H-indazol-3-yl]-1,2-oxazol-3-yl}pyridin-2-yl)-1lambda4-thiomorpholin-1-one], the IC50 in assay [1] is 46 nM; in assay [2], 1.6 nM.

With `COCCOc1cc2[nH]nc(-c3cc(-c4ccc(N5CCOCC5)nc4)no3)c2cc1F` [A141, 5-fluoro-6-(2-methoxyethoxy)-3-{3-[6-(morpholin-4-yl)pyridin-3-yl]-1,2-oxazol-5-yl}-1H-indazole], the IC50 stood at 220 nM in assay [1] and 7.7 nM in assay [2].

For the molecule `COCCOc1cc2[nH]nc(-c3cc(-c4ccc(-n5ncccc5=O)cc4)no3)c2cc1F` [A142, 2-(4-{5-[5-fluoro-6-(2-methoxyethoxy)-1H-indazol-3-yl]-1,2-oxazol-3-yl}phenyl)-2,3-dihydropyridazin-3-one], the figures for the IC50 in assay [1] and in assay [2] were 75 nM and 6 nM, respectively.

In the case of `COCCOc1cc2[nH]nc(-c3cc(-c4ccc(Oc5ccccn5)cc4)no3)c2cc1F` [A143, 5-fluoro-6-(2-methoxyethoxy)-3-{3-[4-(pyridin-2-yloxy)phenyl]-1,2-oxazol-5-yl}-1H-indazole], the IC50 in assay [1] amounted to 860 nM; in assay [2] it was 18 nM.

In the case of `COCCOc1cc2[nH]nc(-c3cc(-c4ccc(S(=O)(=O)N(C)C)cc4)no3)c2cc1F` [A144, 4-{5-[5-fluoro-6-(2-methoxyethoxy)-1H-indazol-3-yl]-1,2-oxazol-3-yl}-N,N-dimethylbenzene-1-sulfonamide], the IC50 worked out at 1900 nM in assay [1] and 3.2 nM in assay [2].

For the molecule `COCCOc1cc2[nH]nc(-c3cc(-c4ccc(N5CC(N6CCOCC6)C5)nc4)no3)c2cc1F` [A145, 5-fluoro-6-(2-methoxyethoxy)-3-(3-{6-[3-(morpholin-4-yl)azetidin-1-yl]pyridin-3-yl}-1,2-oxazol-5-yl)-1H-indazole], the IC50 in assay [1] worked out at 1100 nM; in assay [2], 4.8 nM.

`COCCOc1cc2[nH]nc(-c3cc(-c4ccc(C(=O)N5CC(N6CCOCC6)C5)cc4)on3)c2cc1F` [A146, (4-{3-[5-fluoro-6-(2-methoxy-ethoxy)-1H-indazol-3-yl]-isoxazol-5-yl}-phenyl)-(3-morpholin-4-yl-azetidin-1-yl)-methanone]: the results for the IC50 in assay [1] and in assay [2] were 90 nM and 2.9 nM, respectively.

Regarding `COCCOc1cc2[nH]nc(-c3cc(-c4ccc(C(=O)N5CC[C@@H]5C(C)(C)O)cc4)on3)c2cc1F` [A147, (4-{3-[5-fluoro-6-(2-methoxy-ethoxy)-1H-indazol-3-yl]-isoxazol-5-yl}-phenyl)-[(R)-2-(1-hydroxy-1-methyl-ethyl)-azetidin-1-yl]-methanone], the IC50 in assay [1] worked out at 67 nM; in assay [2], 2.2 nM.

Turning to `COCCOc1cc2[nH]nc(-c3cc(-c4ccc(C(=O)N5CC[C@H]5C(C)(C)O)cc4)on3)c2cc1F` [A148, (4-{3-[5-fluoro-6-(2-methoxy-ethoxy)-1H-indazol-3-yl]-isoxazol-5-yl}-phenyl)-[(S)-2-(1-hydroxy-1-methyl-ethyl)-azetidin-1-yl]-methanone], the results for the IC50 in assay [1] and in assay [2] were 70 nM and 1.8 nM, respectively.

Consider `COCCOc1cc2[nH]nc(-c3cc(-c4ccc(C(=O)N5CC(c6ccccn6)C5)cc4)no3)c2cc1F` [A149, 5-fluoro-6-(2-methoxyethoxy)-3-(3-{4-[3-(pyridin-2-yl)azetidine-1-carbonyl]phenyl}-1,2-oxazol-5-yl)-1H-indazole], for which the IC50 in assay [1] stood at 46 nM; in assay [2], 0.69 nM.
